Reference: patent publication US20210261642A1, “SOLUBILITY OF GLP-1 PEPTIDE” (Novo Nordisk A/S, priority 2017, published 2021)
In brackets after ≈: the same amount, converted by molar mass. Where two headings read alike, the source gives them in different places.

Assay: Assay (I): Determination of Solubility (96-well plate, pH 3.0-11.0, organic solvent 0-70% w/w, UV absorption at 280 nm)
Format: physicochemical
Details: for GLP-1 peptide concentration: Method 2 (precipitation), 5° C.; for solubility thermodynamic at 24 h: read-out: Peptide concentration after 24 h
Procedure: Assay (I): Determination of Solubility
96-Well Plate Preparation
96-well plates containing target peptide in a solid form were prepared in one of two ways:
Method 1 (evaporation): Addition of 100 μl stock solution of said peptide at a concentration of 4-6 mg/ml to each well of a 96-well half area plate (150 μl well size). Subsequently the solvent was evaporated by applying a vacuum until the solvent was completely removed.
Method 2 (precipitation): Addition of a certain volume of a stock solution of said peptide containing to each well of a 96-well half area plate followed by the addition of a certain volume of concentrated phosphoric acid to obtain a pH of 4.6 followed by addition of a certain volume of ethanol resulting in a final ethanol concentration of 20% v/v. Subsequently the plate was stored at 4° C. for 1 h and then centrifuged at 4,000 rpm for 20 min. Finally the supernatant was removed. The concentration of the stock solution was chosen in a way that the final amount of peptide after supernatant removal was >0.4 mg per well.
In both cases the stock solution was prepared by adding de-ionized water to a certain amount of powder of said peptide followed by a stepwise addition of small amounts of a concentrated sodium hydroxide solution until said peptide was completely in solution.
To determine solubility of a target peptide at different pH and organic solvent concentrations, two different buffer systems were used in independent experiments to cover the whole range from pH 3.0 to pH 11.0. Buffer system 1 covers pH 3.0-7.5 and buffer system 2 covers pH 7.5-11.0. For each buffer system 96 different solvent compositions were premixed in the following way: • 1. A low pH buffer (adjusted to either pH 3.0 or pH 7.5) and a high pH buffer (adjusted to either pH 7.5 or pH 11.0) were mixed at 8 different ratios to obtain values between pH 3.0 and pH 7.5 or pH 7.5 and pH 11.0, respectively. The total volume after mixing was 300 μl. • 2. 12 different amounts of organic solvent were then added to these buffers to obtain organic solvent (e.g. ethanol) concentrations between 0 and 70% w/w. • 3. Water was then added to obtain a total weight of 1.0 g of solvent in each well.
After preparing the 96 different solvent systems, 100 μl of each system was transferred to the 96-well plate containing the solid form of the target peptide (prepared as described in the section “96-well plate preparation”). The plate was then stored at a given temperature (between 5° C. and 70° C.) for a given time on a rotating shaker set to 400 rpm. At regular time intervals the plate was centrifuged (4,000 rpm for 10 min) and a 10 μl sample was taken from each well. The samples were then analysed by UV absorption at 280 nm for peptide quantification. Peptide concentration results are given as UV absorption at 280 nm of the sample subtracted UV absorption at 280 nm of a well comprising 10 μl water.
The buffers used were as follows: • Buffer system 1 (for the pH range from pH 3.0-7.5)
• Buffer system 2 (for the pH ranae from pH 7.5-11.0)
Solubility of liraglutide was determined using Assay (I) described herein. Liraglutide was prepared using Method 1 (evaporation) or Method 2 (precipitation) as described in subsection “96-well plate preparation”.

Work on `CCCCCCCCCCCCCCCC(=O)N[C@@H](CCC(=O)NCCCC[C@H](NC(=O)[C@H](C)NC(=O)[C@H](C)NC(=O)[C@H](CCC(N)=O)NC(=O)CNC(=O)[C@H](CCC(=O)O)NC(=O)[C@H](CC(C)C)NC(=O)[C@H](Cc1ccc(O)cc1)NC(=O)[C@H](CO)NC(=O)[C@H](CO)NC(=O)[C@@H](NC(=O)[C@H](CC(=O)O)NC(=O)[C@H](CO)NC(=O)[C@@H](NC(=O)[C@H](Cc1ccccc1)NC(=O)[C@@H](NC(=O)CNC(=O)[C@H](CCC(=O)O)NC(=O)[C@H](C)NC(=O)[C@@H](N)Cc1cnc[nH]1)[C@@H](C)O)[C@@H](C)O)C(C)C)C(=O)N[C@@H](CCC(=O)O)C(=O)N[C@@H](Cc1ccccc1)C(=O)N[C@H](C(=O)N[C@@H](C)C(=O)N[C@@H](Cc1c[nH]c2ccccc12)C(=O)N[C@@H](CC(C)C)C(=O)N[C@H](C(=O)N[C@@H](CCCNC(=N)N)C(=O)NCC(=O)N[C@@H](CCCNC(=N)N)C(=O)NCC(=O)O)C(C)C)[C@@H](C)CC)C(=O)O` [liraglutide, Arg34,Lys26-(N-epsilon-(gamma-L-glutamyl(N-alfa-hexadecanoyl)))-GLP-1(7-37)] yielded a GLP-1 peptide concentration (MeCN 63.6% w/w, pH 10.00, 5 min, before removal of outliers) of 0.4 mg/mL, a GLP-1 peptide concentration (MeCN 63.6% w/w, pH 10.00, 180 min, after removal of outliers) of 2.9 mg/mL and a GLP-1 peptide concentration (MeCN 63.6% w/w, pH 10.00, 180 min, before removal of outliers) of 2.9 mg/mL. The GLP-1 peptide concentration (MeCN 63.6% w/w, pH 10.00, 24 h, after removal of outliers) was 1.0 mg/mL, the GLP-1 peptide concentration (MeCN 63.6% w/w, pH 10.00, 24 h, before removal of outliers) was 1.0 mg/mL and the GLP-1 peptide concentration (MeCN 63.6% w/w, pH 10.50, 5 min, after removal of outliers) was 0.6 mg/mL. For the same compound, the GLP-1 peptide concentration (MeCN 63.6% w/w, pH 10.50, 5 min, before removal of outliers) was 0.6 mg/mL, the GLP-1 peptide concentration (MeCN 63.6% w/w, pH 10.50, 180 min, after removal of outliers) was 3.4 mg/mL and the GLP-1 peptide concentration (MeCN 63.6% w/w, pH 10.50, 180 min, before removal of outliers) was 3.4 mg/mL. For the same compound, the GLP-1 peptide concentration (MeCN 63.6% w/w, pH 10.50, 24 h, after removal of outliers) was 1.3 mg/mL, the GLP-1 peptide concentration (MeCN 63.6% w/w, pH 10.50, 24 h, before removal of outliers) was 1.3 mg/mL and the GLP-1 peptide concentration (MeCN 63.6% w/w, pH 11.00, 5 min, after removal of outliers) was 0.5 mg/mL. It also gave a GLP-1 peptide concentration (MeCN 63.6% w/w, pH 11.00, 5 min, before removal of outliers) of 0.5 mg/mL, a GLP-1 peptide concentration (MeCN 63.6% w/w, pH 11.00, 180 min, after removal of outliers) of 3.2 mg/mL and a GLP-1 peptide concentration (MeCN 63.6% w/w, pH 11.00, 180 min, before removal of outliers) of 3.2 mg/mL. The GLP-1 peptide concentration (MeCN 63.6% w/w, pH 11.00, 24 h, after removal of outliers) was 1.0 mg/mL, the GLP-1 peptide concentration (MeCN 63.6% w/w, pH 11.00, 24 h, before removal of outliers) was 1.0 mg/mL and the GLP-1 peptide concentration (MeCN 70.0% w/w, pH 7.50, 5 min, before removal of outliers) was 0.3 mg/mL. For the same compound, the GLP-1 peptide concentration (MeCN 70.0% w/w, pH 7.50, 180 min, before removal of outliers) was 0.7 mg/mL, the GLP-1 peptide concentration (MeCN 70.0% w/w, pH 7.50, 24 h, before removal of outliers) was 1.6 mg/mL and the GLP-1 peptide concentration (MeCN 70.0% w/w, pH 8.00, 5 min, after removal of outliers) was 0.4 mg/mL. For the same compound, the GLP-1 peptide concentration (MeCN 70.0% w/w, pH 8.00, 5 min, before removal of outliers) was 0.4 mg/mL, the GLP-1 peptide concentration (MeCN 70.0% w/w, pH 8.00, 180 min, after removal of outliers) was 1.0 mg/mL and the GLP-1 peptide concentration (MeCN 70.0% w/w, pH 8.00, 180 min, before removal of outliers) was 1.0 mg/mL. For the same compound, the GLP-1 peptide concentration (MeCN 70.0% w/w, pH 8.00, 24 h, after removal of outliers) was 2.5 mg/mL, the GLP-1 peptide concentration (MeCN 70.0% w/w, pH 8.00, 24 h, before removal of outliers) was 2.5 mg/mL and the GLP-1 peptide concentration (MeCN 70.0% w/w, pH 8.50, 5 min, after removal of outliers) was 0.4 mg/mL. The GLP-1 peptide concentration (MeCN 70.0% w/w, pH 8.50, 5 min, before removal of outliers) was 0.4 mg/mL, the GLP-1 peptide concentration (MeCN 70.0% w/w, pH 8.50, 180 min, after removal of outliers) was 1.4 mg/mL and the GLP-1 peptide concentration (MeCN 70.0% w/w, pH 8.50, 180 min, before removal of outliers) was 1.4 mg/mL. For the same compound, the GLP-1 peptide concentration (MeCN 70.0% w/w, pH 8.50, 24 h, after removal of outliers) was 3.3 mg/mL, the GLP-1 peptide concentration (MeCN 70.0% w/w, pH 8.50, 24 h, before removal of outliers) was 3.3 mg/mL and the GLP-1 peptide concentration (MeCN 70.0% w/w, pH 9.00, 5 min, after removal of outliers) was 0.4 mg/mL. It also gave a GLP-1 peptide concentration (MeCN 70.0% w/w, pH 9.00, 5 min, before removal of outliers) of 0.4 mg/mL, a GLP-1 peptide concentration (MeCN 70.0% w/w, pH 9.00, 180 min, after removal of outliers) of 1.5 mg/mL and a GLP-1 peptide concentration (MeCN 70.0% w/w, pH 9.00, 180 min, before removal of outliers) of 1.5 mg/mL. For the same compound, the GLP-1 peptide concentration (MeCN 70.0% w/w, pH 9.00, 24 h, after removal of outliers) was >4.0 mg/mL, the GLP-1 peptide concentration (MeCN 70.0% w/w, pH 9.00, 24 h, before removal of outliers) was >4.0 mg/mL and the GLP-1 peptide concentration (MeCN 70.0% w/w, pH 9.50, 5 min, after removal of outliers) was 0.5 mg/mL. The GLP-1 peptide concentration (MeCN 70.0% w/w, pH 9.50, 5 min, before removal of outliers) was 0.5 mg/mL, the GLP-1 peptide concentration (MeCN 70.0% w/w, pH 9.50, 180 min, before removal of outliers) was 1.9 mg/mL and the GLP-1 peptide concentration (MeCN 70.0% w/w, pH 9.50, 24 h, before removal of outliers) was >4.0 mg/mL. It also gave a solubility thermodynamic at 24 h (aqueous buffer / organic solvent mixture, pH 3.1, aqueous buffer, DMF 0.0% w/w, pH 3.1, RT, Method 1 (evaporation)) of 300 µg/mL (≈ 80 µM), a solubility thermodynamic at 24 h (aqueous buffer / organic solvent mixture, pH 4.8, aqueous buffer, DMF 0.0% w/w, pH 4.8, RT, Method 1 (evaporation)) of 200 µg/mL (≈ 53.3 µM) and a solubility thermodynamic at 24 h (aqueous buffer / organic solvent mixture, pH 5.8, aqueous buffer, DMF 0.0% w/w, pH 5.8, RT, Method 1 (evaporation)) of 1500 µg/mL (≈ 400 µM). For the same compound, the solubility thermodynamic at 24 h (aqueous buffer / organic solvent mixture, pH 6.7, aqueous buffer, DMF 0.0% w/w, pH 6.7, RT, Method 1 (evaporation)) was 2200 µg/mL (≈ 586 µM), the solubility thermodynamic at 24 h (pH 3, aqueous buffer, MeCN 0.0% w/w, pH 3.0, RT, Method 1) was 100 µg/mL (≈ 26.7 µM) and the solubility thermodynamic at 24 h (pH 3.6, aqueous buffer, MeCN 0.0% w/w, pH 3.6, RT, Method 1) was 100 µg/mL (≈ 26.7 µM). It also gave a solubility thermodynamic at 24 h (pH 4.9, aqueous buffer, MeCN 0.0% w/w, pH 4.9, 5° C., Method 1) of 100 µg/mL (≈ 26.7 µM), a solubility thermodynamic at 24 h (pH 6.2, aqueous buffer, MeCN 0.0% w/w, pH 6.2, 5° C., Method 1) of 100 µg/mL (≈ 26.7 µM) and a solubility thermodynamic at 24 h (pH 6.2, aqueous buffer, MeCN 0.0% w/w, pH 6.2, RT, Method 1) of 500 µg/mL (≈ 133 µM). It also gave a solubility thermodynamic at 24 h (premixed buffer/organic solvent/water solvent system, pH 4.3, aqueous buffer, MeCN 0.0% w/w, pH 4.3, 5° C., Method 1) of 200 µg/mL (≈ 53.3 µM).
